From patent publication US20020077355A1, “Use of epoxyeicosatrienoic acids in the treatment of cerebrovascular conditions” (priority 2000, published 2002)
“And” between values parts separate entries of the source, which are not always exact repeats. Identical values can stand only once.

Experiments:
[1] = test system: rat cerebellar granule cell (CGC) cultures; assay: H2O2 oxidative stress, apoptosis scored by Hoechst stain for nuclear condensation; format: cell-based; conditions: H2O2 225 μM for 10 min, 11,12-EET 1.2 μM present; without 11,12-EET 87.6%; p<0.01
Experimental: (§1) Cerebellar cortices of postnatal day 7 rat pups were isolated, incubated in 0.25% trypsin for 20 min and triturated with a 10-cc Falcon pipette. Cells were plated on Falcon plastic dishes ˜100,000 cells/cm^2 in BME medium containing 25 mM KCl. Cell cultures were maintained in a humidified 5% CO2 /37° C. incubator. 10 μM AraC was added from day 2-3 in vitro to suppress glial proliferation. Cells were studied at day 7-8 in vitro.
(§2) To test the effects of EET during oxidative stress, rat cerebellar granule cell (CGC) cultures were subjected to H2O2 treatment (225 μM for 10 min.). Less apoptosis was found at 24 hour when 11,12-EET (1.2 μM) was present compared to cell culture without 11,12-EET (51.7% vs. 87.6% respectively, p<0.01, scored by Hoechst stain for nuclear condensation). In addition, superoxide production (as monitored by oxidation of dihydroethidine) was decreased when 11,12-EET was present in CGC cultures during H2O2 treatment.

[2] = test system: rat cerebellar granule cell (CGC) cultures; assay: Dihydroethidine study to monitor intracellular superoxide production; format: cell-based; conditions: CGC cultures during H2O2 treatment, 11,12-EET 1.2 μM
Experimental: as §1
Dihydreothidine study to monitor intracellular superoxide production: 10 μl of dihydroethidine stock solution (1 mg/cc) in dimethylsulfoxide (DMSO) and 4 μl of H2O2 were added to 4cc of Eagle's Basal Medium (medium A). Each 2-cm^2 well of containing neuronal cell culture was preincubated with 11.12-EET (1.2 μM) for an hour and was replaced with 250 μL of medium A in the presence or absence of 11,12-EET (1.2 μM). […]
as §2

[3] = test system: regional cerebral blood flow (rCBF) in mice; assay: Regional cerebral blood flow by laser Doppler flowmetry after MCA occlusion; format: in vivo
Experimental: In a separate set of ventilated, halothane-anesthetized animals, regional cerebral blood flow (rCBF) was determined at the margins (“penumbra”) of ischemic infarcts using laser Doppler flowmetry (Perimed, PF-2B, Stockholm, Sweden) and recorded on a MacLab/8 data acquisition system (AD Instruments, Milford, Mass.). the left femoral artery and vein were cannulated for blood pressure measurement, blood gas determination and drug administration, a fiberoptic probe (Perimed PF-319:2, diameter=0.5 mm) was fixed to the skull, 4 mm lateral and 2 mm posterior to bregma on the ipsilateral hemisphere and away from large pial vessels. This coordinate identifies the site on the convex brain surface within the vascular territory supplied by the distal segment of the MCA (Huang, Z et al., Science, 1994, 265:1883-1885; Yang, G et al., Stroke, 1994, 25:165-70). rCBF was recorded continuously before, during and after MCA occlusion. The mean values after MCA occlusion and before administration were taken as baseline, and the data thereafter were expressed as percentages of the baseline value. The percent change in cerebrovascular resistance was calculated using the following formula: Δ%R=Δ% MABP/Δ% rCBF, where Δ% MABP is percent change in mean arterial blood pressure.
(§3) Data is expressed as means ±SE. Statistical evaluation was performed by Student's t-test to compare infarct volumes between groups. Analysis of variance with repeated measures followed by Dunnett's t-test was used to test the significance of rCBF and resistance changes between groups. p<0.05 was considered statistically significant.
Physiological variables during laser-Doppler flowimetry in anesthetized, ventilated, EET-treated and vehicle-treated mice are shown in FIGS. 2 and 3. Values are reported as mean +/− SEM. CBF denotes cerebral blood flow; MABP indicates mean arterial blood pressure.
FIG. 2 is a graph showing regional CBF changes in EET-treated and vehicle-treated mice for 80 min after EET (300 μg/kg total dose) or vehicle infusion at a constant rate of 100 μl/kg/min over 20 min. Error bars denote standard error of the mean (SEM); CBF change with baseline control was determined by one-way ANOVA followed by Fisher's protected least-squares difference test. The increase in rCBF began at 5-10 minutes and achieved statistical significance at 10-15 minutes after infusion. Maximum values achieved at 40-60 min reached 50% above baseline levels.

[4] = test system: mean arterial blood pressure (MABP) in mice; assay: Mean arterial blood pressure in animals with focal cerebral ischemia; format: in vivo; conditions: FIG. 3
Excerpt: (§4) Ischemia was produced by occluding the left middle cerebral artery (MCA) with a silicon-coated 8-0 nylon monofilament under anesthesia as described (Huang, Z et al., J Cereb Blood Flow Metab, 1996, 16:981-987, Huang, Z et al., Science, 1994, 265:1883-1885, Hara, H et al., J Cereb Blood Flow Metab, 1997, 1:515-526). Arterial blood pressure, heart rate, arterial oxygen pressure, and partial pressure of carbon dioxide were monitored as described (Huang, Z et al., J Cereb Blood Flow Metab, 1996, 16:981-987, Huang, Z et al., Science, 1994, 265:1883-1885, Hara, H et al., J Cereb Blood Flow Metab, 1997, 1:515-526).
In a separate set of ventilated, halothane-anesthetized animals, regional cerebral blood flow (rCBF) was determined at the margins (“penumbra”) of ischemic infarcts using laser Doppler flowmetry (Perimed, PF-2B, Stockholm, Sweden) and recorded on a MacLab/8 data acquisition system (AD Instruments, Milford, Mass.). the left femoral artery and vein were cannulated for blood pressure measurement, blood gas determination and drug administration, a fiberoptic probe (Perimed PF-319:2, diameter=0.5 mm) was fixed to the skull, 4 mm lateral and 2 mm posterior to bregma on the ipsilateral hemisphere and away from large pial vessels. […]

[5] = test system: mice subjected to middle cerebral artery occlusion; assay: Focal cerebral ischemia by middle cerebral artery occlusion, infarct volume; format: in vivo; conditions: for Infarct Volume, individual animal / Infarct Volume, Mean: mice, MCA occlusion; for Infarct Volume, individual animal: 24 hours
Excerpt: Young adult male mice (C57B1/J6, Jackson Laboratories) weighing 20-25 g, were given free access to food and water prior to experimentation.
as §4
11,12 EET (Sigma Chemical Co., St Louis, Mo.) or vehicle was administered by an infusion pump (Harvard Apparatus, South Natick, Mass.) with a tethering device (Instech, Plymouth Meeting, Pa.) into the femoral vein at the rate of 0.2 ml/hour for 2 hours beginning after the onset of ischemia to deliver a dose of 30, 100, and/or 300 μg/kg/hour. Control animals received the equivalent amount of vehicle alone. During infusion, the anesthesia was discontinued. […] After infusion, the animals were re-anesthetized with halothane and the venous catheter was removed. The filaments were withdrawn after 2 hours and after 24 hours, and mice were sacrificed. Brains were divided into five coronal 2-mm sections using a mouse brain matrix (RBM-200C, Activated Systems, Ann Arbor, Mich., USA). Infarction volume was quantitated with an image analysis system (M4, St. Catharines, Ontario, Canada) on 2% 2,3,5-triphenyltetrazolium chloride (Sigma Chemical Co., St Louis, Mo.) stained 2-mm slices.
as §3

SMILES: CCCCC/C=C\CC1OC1C/C=C\C/C=C\CCCC(=O)O (stereo not drawn) [EET, 11,12-epoxyeicosatrienoic acid]
- Apoptosis at 24 hour [1]: 51.7%
- Superoxide production (oxidation of dihydroethidine) [2]: decreased
- Time at which the increase in rCBF began ([3]; 300 μg/kg i.v.): 5 to 10 min
- Effect on rCBF in parietal cortex ([3]; 300 μg/kg i.v. total dose infused over 20 min, vehicle did not increase rCBF): increased rCBF
- Time at which the rCBF increase achieved statistical significance ([3]; 300 μg/kg i.v., after infusion): 10 to 15 min
- Maximum rCBF above baseline levels ([3]; 300 μg/kg i.v., at 40-60 min): 50%
- Change in MABP, EET-treated vs. vehicle-treated animals [4]: No significant changes
- Reduction of infarct volume in comparison to vehicle-treated animals ([5]; 300 μg/kg group, n=7, p<0.05): at least 41%
- Infarct volume, of hemispheric volume ([5]; 300 μg/kg group, n=7, vehicle 34±3, means ±SE): 20±3
- Infarct Volume, individual animal ([5]; EET 30 μg/kg i.v. infusion): 32.4 mm^3 and 43.0 mm^3 and 41.9 mm^3 and 27.7 mm^3 and 37.4 mm^3 and 23.7 mm^3
- Infarct Volume, Mean ([5]; EET 30 μg/kg, n=6): 34.3 mm^3
- Infarct Volume, individual animal ([5]; EET 100 μg/kg i.v. infusion): 34.1 mm^3 and 37.6 mm^3 and 22.4 mm^3 and 16.3 mm^3 and 24.5 mm^3 and 38.6 mm^3 and 11.8 mm^3
- Infarct Volume, Mean ([5]; EET 100 μg/kg, n=7): 26.5 mm^3
- Infarct Volume, individual animal ([5]; EET 300 μg/kg i.v. infusion): 32.5 mm^3 and 13.4 mm^3 and 13.1 mm^3 and 28.3 mm^3 and 11.8 mm^3 and 25.6 mm^3 and 13.6 mm^3
- Infarct Volume, Mean ([5]; EET 300 μg/kg, n=7): 19.7 mm^3
